# According to patent US10081635B2, “Substituted N-(pyrrolidine-3-yl)-7H-pyrrolo[2,3-D]pyrimidine-4-amine as janus kinase inhibitor” (YANG JI CHEMICAL CO., LTD., priority 2014, dated 2018):
# Assays:
# Type in all cases: biochemical
# Human JAK1 = Human JAK1 (Homo sapiens (Human), UniProt P23458); assay: In vitro kinase inhibition test, JAK1 (33P-ATP filter scintillation); conditions: compound at 1 uM; read-out: JAK1 kinase-phosphorylation inhibitory level (% inhibition)
# Procedure: (§1) 1. In Vitro Kinase Inhibition Test
# (§2) Kinases used were human-derived JAK1, JAK2, JAK3, and TYK2 (Millipore, Germany). Each of these kinases was diluted with a suitable buffer solution as described below, and then mixed with reagents.
# Tris(hydroxymethyl)aminomethane (TRIS) and ethylenediaminetetraacetic acid (EDTA) were dissolved in distilled water at a concentration of 20 mM and 0.2 mM, respectively, and 100 uL of β-mercaptoethanol, 10 uL of Brij-35™, and 5 mL of glycerol, each per 100 mL of the solution, were added to the solution, thereby preparing a JAK1 dilution buffer solution.
# (§3) Each compound was dissolved in a 100% DMSO solution at a 50 uM concentration. This solution was reacted with reagents in wells on a 96-well plate to reach a final concentration of 1 uM. Detailed experimental methods for each kinase are described below.
# After reaction for about 40 minutes at room temperature, the reaction was stopped by adding 5 uL of a 3% (v/v) phosphoric acid solution. […] The methanol drying is a drying process using an azeotropic effect, wherein methanol is added into an aqueous solution for drying.
# (§4) In Tables 5 and 6, the numbers in the “Example” column, which are identification numbers of the examples, indicate the compounds synthesized in the corresponding examples, the values in the “JAK1”, “JAK2”, “JAK3”, and “TYK2” columns represent kinase-phosphorylation inhibitory levels as a percentage (%) of the compounds synthesized in the corresponding examples at a 1 uM concentration. In Tables 5 and 6, negative values substantially indicate no inhibitory effect.
# (§5) The inhibitory levels (% inhibition) represent a percentage of reduction in phosphorylation activity in each test group with respect to the phosphorylation activity of a corresponding kinase in a negative control group lacking any of the compounds synthesized in the examples. % inhibition=[(Scintillation value of Test compound non-treatment group−Scintillation value of Test compound treatment group)/(Scintillation value of Test compound non-treatment group)]×100
# Human JAK2 = Human JAK2 (Homo sapiens (Human), UniProt O60674); assay: In vitro kinase inhibition test, JAK2 (33P-ATP filter scintillation); conditions: compound at 1 uM; read-out: JAK2 kinase-phosphorylation inhibitory level (% inhibition)
# Sequence of Human JAK2 (O60674 whole entry): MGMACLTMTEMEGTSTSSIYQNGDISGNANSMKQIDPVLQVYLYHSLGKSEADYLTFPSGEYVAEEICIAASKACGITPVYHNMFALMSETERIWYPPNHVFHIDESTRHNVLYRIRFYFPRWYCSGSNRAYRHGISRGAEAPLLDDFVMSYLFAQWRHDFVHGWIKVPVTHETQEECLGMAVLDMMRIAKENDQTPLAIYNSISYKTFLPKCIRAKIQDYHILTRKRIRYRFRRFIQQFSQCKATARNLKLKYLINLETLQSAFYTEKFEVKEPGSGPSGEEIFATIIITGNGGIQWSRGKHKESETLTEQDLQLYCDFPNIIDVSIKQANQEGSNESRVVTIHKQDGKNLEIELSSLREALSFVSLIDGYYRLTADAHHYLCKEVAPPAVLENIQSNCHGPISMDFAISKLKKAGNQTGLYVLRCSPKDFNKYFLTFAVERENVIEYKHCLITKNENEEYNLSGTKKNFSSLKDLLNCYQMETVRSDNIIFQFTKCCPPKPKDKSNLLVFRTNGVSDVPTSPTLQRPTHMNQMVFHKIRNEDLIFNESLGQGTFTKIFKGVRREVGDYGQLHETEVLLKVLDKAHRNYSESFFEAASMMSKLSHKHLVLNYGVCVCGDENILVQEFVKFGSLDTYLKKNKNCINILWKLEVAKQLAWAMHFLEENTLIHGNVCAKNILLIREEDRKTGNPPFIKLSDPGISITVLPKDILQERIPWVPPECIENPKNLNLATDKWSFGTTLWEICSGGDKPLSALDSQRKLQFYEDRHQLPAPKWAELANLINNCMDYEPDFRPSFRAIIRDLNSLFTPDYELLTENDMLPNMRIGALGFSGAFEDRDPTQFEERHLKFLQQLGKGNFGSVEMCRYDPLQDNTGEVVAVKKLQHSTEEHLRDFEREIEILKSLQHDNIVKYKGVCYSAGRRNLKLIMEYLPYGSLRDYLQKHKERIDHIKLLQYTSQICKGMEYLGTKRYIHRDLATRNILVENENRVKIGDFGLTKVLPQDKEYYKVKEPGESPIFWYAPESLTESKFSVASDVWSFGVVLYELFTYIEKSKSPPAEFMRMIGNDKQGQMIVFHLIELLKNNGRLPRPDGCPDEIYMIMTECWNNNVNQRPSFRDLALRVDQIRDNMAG
# Procedure: as §1, §2
# (§6) 3-morpholinopropane-1-sulfonic acid (MOPS) and EDTA were dissolved in distilled water at a concentration of 20 mM and 1 mM, respectively, and 100 uL of β-mercaptoethanol, 10 uL of Brij-35™, 5 mL of glycerol, and 100 mg of bovine serum albumin (BSA), each per 100 mL of the solution, were added to the solution, thereby preparing a JAK2, JAK3, and TYK2 dilution buffer solution.
# as §3
# (§7) After reaction for about 40 minutes at room temperature, the reaction was stopped by adding 5 uL of a 3% (v/v) phosphoric acid solution.
# as §4, §5
# Human JAK3 = Human JAK3 (Homo sapiens (Human), UniProt P52333); assay: In vitro kinase inhibition test, JAK3 (33P-ATP filter scintillation); conditions: compound at 1 uM; read-out: JAK3 kinase-phosphorylation inhibitory level (% inhibition)
# Sequence of Human JAK3 (P52333 whole entry): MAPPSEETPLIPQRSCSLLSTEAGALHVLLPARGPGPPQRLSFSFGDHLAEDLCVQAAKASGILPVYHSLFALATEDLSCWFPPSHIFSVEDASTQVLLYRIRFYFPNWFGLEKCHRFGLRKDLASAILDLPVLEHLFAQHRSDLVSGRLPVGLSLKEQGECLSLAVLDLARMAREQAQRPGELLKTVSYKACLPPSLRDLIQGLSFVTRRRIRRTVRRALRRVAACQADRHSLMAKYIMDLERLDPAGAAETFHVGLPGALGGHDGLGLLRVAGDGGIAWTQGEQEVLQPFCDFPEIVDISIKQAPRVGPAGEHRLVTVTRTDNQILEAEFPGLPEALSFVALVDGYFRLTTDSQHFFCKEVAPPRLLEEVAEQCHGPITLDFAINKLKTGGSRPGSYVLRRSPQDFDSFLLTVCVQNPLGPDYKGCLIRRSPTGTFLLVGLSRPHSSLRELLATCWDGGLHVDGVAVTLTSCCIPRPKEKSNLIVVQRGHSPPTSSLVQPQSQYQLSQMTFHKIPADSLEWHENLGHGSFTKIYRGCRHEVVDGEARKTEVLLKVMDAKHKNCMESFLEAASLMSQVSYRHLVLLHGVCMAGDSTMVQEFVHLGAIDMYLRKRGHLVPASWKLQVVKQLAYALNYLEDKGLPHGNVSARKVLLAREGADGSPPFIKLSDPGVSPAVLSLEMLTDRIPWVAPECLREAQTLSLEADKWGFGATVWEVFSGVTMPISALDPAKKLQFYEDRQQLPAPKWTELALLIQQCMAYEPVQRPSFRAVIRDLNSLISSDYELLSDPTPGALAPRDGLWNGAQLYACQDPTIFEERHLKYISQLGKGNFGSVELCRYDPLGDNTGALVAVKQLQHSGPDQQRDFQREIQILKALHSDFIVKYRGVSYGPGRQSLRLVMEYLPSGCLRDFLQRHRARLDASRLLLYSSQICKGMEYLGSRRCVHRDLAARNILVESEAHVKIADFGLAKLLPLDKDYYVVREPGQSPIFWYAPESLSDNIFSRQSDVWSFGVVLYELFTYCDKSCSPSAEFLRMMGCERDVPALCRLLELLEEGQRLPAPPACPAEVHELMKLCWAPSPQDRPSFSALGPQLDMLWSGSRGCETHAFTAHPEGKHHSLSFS
# Procedure: as §1, §2, §6, §3, §7, §4, §5
# Human TYK2 = Human TYK2 (Homo sapiens (Human), UniProt P29597); assay: In vitro kinase inhibition test, TYK2 (33P-ATP filter scintillation); conditions: compound at 1 uM; read-out: TYK2 kinase-phosphorylation inhibitory level (% inhibition)
# Sequence of Human TYK2 (P29597 whole entry): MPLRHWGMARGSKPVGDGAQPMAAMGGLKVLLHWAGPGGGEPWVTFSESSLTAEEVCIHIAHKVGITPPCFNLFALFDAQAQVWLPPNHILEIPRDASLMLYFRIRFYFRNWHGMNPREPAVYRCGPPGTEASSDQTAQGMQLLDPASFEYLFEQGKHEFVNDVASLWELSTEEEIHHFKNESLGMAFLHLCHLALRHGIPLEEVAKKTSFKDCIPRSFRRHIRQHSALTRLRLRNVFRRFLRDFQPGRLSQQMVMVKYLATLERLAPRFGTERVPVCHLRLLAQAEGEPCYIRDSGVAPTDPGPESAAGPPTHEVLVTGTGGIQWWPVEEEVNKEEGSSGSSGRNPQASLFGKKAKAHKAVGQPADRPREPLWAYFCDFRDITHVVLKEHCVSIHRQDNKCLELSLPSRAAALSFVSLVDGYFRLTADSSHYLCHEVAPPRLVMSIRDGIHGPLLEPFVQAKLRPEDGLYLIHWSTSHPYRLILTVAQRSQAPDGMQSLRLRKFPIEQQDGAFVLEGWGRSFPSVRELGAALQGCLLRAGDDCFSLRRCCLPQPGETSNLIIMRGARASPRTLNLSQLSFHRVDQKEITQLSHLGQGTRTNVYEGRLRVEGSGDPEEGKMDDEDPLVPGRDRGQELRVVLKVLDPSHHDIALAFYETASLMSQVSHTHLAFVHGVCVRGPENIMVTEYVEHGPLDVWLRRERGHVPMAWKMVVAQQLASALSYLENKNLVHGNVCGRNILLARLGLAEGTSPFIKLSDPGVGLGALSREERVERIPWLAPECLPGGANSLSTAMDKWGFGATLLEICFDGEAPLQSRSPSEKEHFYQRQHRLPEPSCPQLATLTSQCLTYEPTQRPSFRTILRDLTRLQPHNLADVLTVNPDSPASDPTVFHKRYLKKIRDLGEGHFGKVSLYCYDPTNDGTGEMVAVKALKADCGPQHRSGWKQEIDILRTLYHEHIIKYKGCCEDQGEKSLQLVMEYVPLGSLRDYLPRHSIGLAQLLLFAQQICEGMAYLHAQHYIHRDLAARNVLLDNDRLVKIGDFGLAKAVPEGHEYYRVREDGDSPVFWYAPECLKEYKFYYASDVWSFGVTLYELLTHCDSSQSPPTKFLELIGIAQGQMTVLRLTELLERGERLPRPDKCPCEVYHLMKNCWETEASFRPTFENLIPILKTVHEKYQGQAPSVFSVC
# Procedure: as §1, §2, §6, §3, §7, §4, §5
# Sequence of Human JAK1 (P23458 whole entry): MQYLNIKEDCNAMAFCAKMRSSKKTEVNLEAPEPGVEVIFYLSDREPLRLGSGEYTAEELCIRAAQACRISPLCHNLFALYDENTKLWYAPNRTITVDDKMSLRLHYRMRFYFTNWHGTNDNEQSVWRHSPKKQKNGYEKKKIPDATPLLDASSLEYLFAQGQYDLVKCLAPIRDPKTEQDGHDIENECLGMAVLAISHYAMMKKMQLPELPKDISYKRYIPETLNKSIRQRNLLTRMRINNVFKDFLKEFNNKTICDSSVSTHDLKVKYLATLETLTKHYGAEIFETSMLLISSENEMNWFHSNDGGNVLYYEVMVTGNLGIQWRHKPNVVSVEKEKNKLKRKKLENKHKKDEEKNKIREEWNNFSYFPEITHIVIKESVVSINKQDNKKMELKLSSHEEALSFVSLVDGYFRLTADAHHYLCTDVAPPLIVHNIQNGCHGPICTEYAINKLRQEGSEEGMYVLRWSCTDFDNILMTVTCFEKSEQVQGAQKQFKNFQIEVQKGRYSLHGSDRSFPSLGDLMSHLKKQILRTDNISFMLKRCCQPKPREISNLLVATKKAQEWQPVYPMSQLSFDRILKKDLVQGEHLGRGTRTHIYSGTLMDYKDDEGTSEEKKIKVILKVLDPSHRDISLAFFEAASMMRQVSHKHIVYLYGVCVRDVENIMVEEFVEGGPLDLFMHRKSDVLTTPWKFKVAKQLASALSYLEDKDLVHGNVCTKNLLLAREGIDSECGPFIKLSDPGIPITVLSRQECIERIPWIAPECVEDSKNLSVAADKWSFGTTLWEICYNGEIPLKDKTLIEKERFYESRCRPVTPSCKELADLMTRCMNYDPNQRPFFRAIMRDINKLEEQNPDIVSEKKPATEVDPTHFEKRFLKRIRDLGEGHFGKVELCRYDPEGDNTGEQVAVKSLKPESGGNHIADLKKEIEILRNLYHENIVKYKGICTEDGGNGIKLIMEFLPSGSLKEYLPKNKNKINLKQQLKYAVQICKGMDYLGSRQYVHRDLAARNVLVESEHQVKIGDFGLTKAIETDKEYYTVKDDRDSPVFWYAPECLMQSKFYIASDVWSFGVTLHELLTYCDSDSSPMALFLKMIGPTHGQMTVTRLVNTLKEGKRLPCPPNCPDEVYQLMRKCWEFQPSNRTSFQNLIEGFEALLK
Structure (SMILES),inhibition at 1 µM (Human JAK1) [%],inhibition at 1 µM (Human JAK2) [%],inhibition at 1 µM (Human JAK3) [%],inhibition at 1 µM (Human TYK2) [%]
"CCCCN1C[C@H](N(C)c2ncnc3[nH]ccc23)C2(CC2)C1 [Example 1, (R)-N-(5-butyl-5-azaspiro[2.4]heptan-7-yl)-N-methyl-7H-pyrrolo[2,3-d]pyrimidin-4-amine]",79,-14,8,-4
"CCCCCN1C[C@H](N(C)c2ncnc3[nH]ccc23)C2(CC2)C1 [Example 2, (R)-N-methyl-N-(5-pentyl-5-azaspiro[2.4]heptan-7-yl)-7H-pyrrolo[2,3-d]pyrimidin-4-amine]",77,-19,7,3
"CC(C)C(=O)N1C[C@H](N(C)c2ncnc3[nH]ccc23)C2(CC2)C1 [Example 3, (R)-2-methyl-1-(7-(methyl(7H-pyrrolo[2,3-d]pyrimidin-4-yl)amino)-5-azaspiro[2.4]heptan-5-yl)propan-1-one]",83,25,16,49
"CN(c1ncnc2[nH]ccc12)[C@H]1CN(C(=O)CN=[N+]=[N-])CC12CC2 [Example 4, (R)-2-azido-1-(7-(methyl(7H-pyrrolo[2,3-d]pyrimidin-4-yl)amino)-5-azaspiro[2.4]heptan-5-yl)ethan-1-one]",95,72,57,78
"CC(C)CC(=O)N1C[C@H](N(C)c2ncnc3[nH]ccc23)C2(CC2)C1 [Example 6, (R)-3-methyl-1-(7-(methyl(7H-pyrrolo[2,3-d]pyrimidin-4-yl)amino)-5-azaspiro[2.4]heptan-5-yl)butan-1-one]",90,21,18,46
"CC(=O)NCC(=O)N1C[C@H](N(C)c2ncnc3[nH]ccc23)C2(CC2)C1 [Example 7, (R)-N-(2-(7-(methyl(7H-pyrrolo[2,3-d]pyrimidin-4-yl)amino)-5-azaspiro[2.4]heptan-5-yl)-2-oxoethyl)acetamide]",70,-17,8,8
"CNC(=O)CC(=O)N1C[C@H](N(C)c2ncnc3[nH]ccc23)C2(CC2)C1 [Example 8, (R)-N-methyl-3-(7-(methyl(7H-pyrrolo[2,3-d]pyrimidin-4-yl)amino)-5-azaspiro[2.4]heptan-5-yl)-3-oxopropanamide]",61,-7,3,11
"CN(c1ncnc2[nH]ccc12)[C@H]1CN(C(=O)C2CC2)CC12CC2 [Example 9, (R)-cyclopropyl(7-(methyl(7H-pyrrolo[2,3-d]pyrimidin-4-yl)amino)-5-azaspiro[2.4]heptan-5-yl)methanone]",90,10,13,70
"CC(=O)N1CCC(C(=O)N2C[C@H](N(C)c3ncnc4[nH]ccc34)C3(CC3)C2)CC1 [Example 10, (R)-1-(4-(7-(methyl(7H-pyrrolo[2,3-d]pyrimidin-4-yl)amino)-5-azaspiro[2.4]heptane-5-carbonyl)piperidin-1-yl)ethan-1-one]",88,2,23,52
"CN(c1ncnc2[nH]ccc12)[C@H]1CN(C(=O)c2ccco2)CC12CC2 [Example 11, (R)-furan-2-yl(7-(methyl(7H-pyrrolo[2,3-d]pyrimidin-4-yl)amino)-5-azaspiro[2.4]heptan-5-yl)methanone]",93,10,15,61

# The next lines start with the values.
inhibition at 1 µM (Human JAK1) [%],inhibition at 1 µM (Human JAK2) [%],inhibition at 1 µM (Human JAK3) [%],inhibition at 1 µM (Human TYK2) [%],Structure (SMILES)
80,-11,2,26,"CN(c1ncnc2[nH]ccc12)[C@H]1CN(C(=O)c2cccnc2)CC12CC2 [Example 12, (R)-(7-(methyl(7H-pyrrolo[2,3-d]pyrimidin-4-yl)amino)-5-azaspiro[2.4]heptan-5-yl)(pyridin-3-yl)methanone]"
81,-11,13,30,"CN(c1ncnc2[nH]ccc12)[C@H]1CN(C(=O)c2ccccc2)CC12CC2 [Example 13, (R)-(7-(methyl(7H-pyrrolo[2,3-d]pyrimidin-4-yl)amino)-5-azaspiro[2.4]heptan-5-yl)(phenyl)methanone]"
84,-14,12,15,"CN(c1ncnc2[nH]ccc12)[C@H]1CN(C(=O)c2ccncc2)CC12CC2 [Example 14, (R)-(7-(methyl(7H-pyrrolo[2,3-d]pyrimidin-4-yl)amino)-5-azaspiro[2.4]heptan-5-yl)(pyridin-4-yl)methanone]"
76,-15,13,43,"CN(c1ncnc2[nH]ccc12)[C@H]1CN(C(=O)c2cccc(C#N)c2)CC12CC2 [Example 15, (R)-3-(7-(methyl(7H-pyrrolo[2,3-d]pyrimidin-4-yl)amino)-5-azaspiro[2.4]heptane-5-carbonyl)benzonitrile]"
79,13,15,23,"CN(c1ncnc2[nH]ccc12)[C@H]1CN(C(=O)c2ccc(C#N)cc2)CC12CC2 [Example 16, (R)-4-(7-(methyl(7H-pyrrolo[2,3-d]pyrimidin-4-yl)amino)-5-azaspiro[2.4]heptane-5-carbonyl)benzonitrile]"
65,-14,-1,39,"CN(c1ncnc2[nH]ccc12)[C@H]1CN(C(=O)c2ccccc2C(F)(F)F)CC12CC2 [Example 17, (R)-(7-(methyl(7H-pyrrolo[2,3-d]pyrimidin-4-yl)amino)-5-azaspiro[2.4]heptan-5-yl)(2-(trifluoromethyl)phenyl)methanone]"
71,-17,5,37,"CN(c1ncnc2[nH]ccc12)[C@H]1CN(C(=O)c2cccc(C(F)(F)F)c2)CC12CC2 [Example 18, (R)-(7-(methyl(7H-pyrrolo[2,3-d]pyrimidin-4-yl)amino)-5-azaspiro[2.4]heptan-5-yl)(3-(trifluoromethyl)phenyl)methanone]"
98,80,82,91,"CN(c1ncnc2[nH]ccc12)[C@H]1CN(C(=S)CC#N)CC12CC2 [Example 19, (R)-3-(7-(methyl(7H-pyrrolo[2,3-d]pyrimidin-4-yl)amino)-5-azaspiro[2.4]heptan-5-yl)-3-thioxopropanenitrile]"
93,27,27,43,"CC(C)COC(=O)N1C[C@H](N(C)c2ncnc3[nH]ccc23)C2(CC2)C1 [Example 20, isobutyl (R)-7-(methyl(7H-pyrrolo[2,3-d]pyrimidin-4-yl)amino)-5-azaspiro[2.4]heptane-5-carboxylate]"
